Calls of active or inactive are those of the source.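 Rule for the calls: active = compounds giving half or more protection of infected cells from virus-caused growth loss, again on retest; inactive = the rest.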 Where a SMILES comes first, the peptide text is derived from it. The star is where a group is joined. Cbz = O=C(OCc1ccccc1)*
System: CEM cells HIV-1 protection, formazan growth assay
Experiment: NCI AIDS Antiviral Assay
Details: for IC50: measured here: growth of uninfected CEM cells
Outline: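 Screen of anti-HIV-1 activity in human CEM cells using a formazan-based growth measurement at five drug concentrations. Hits with 50% or greater protection were repeated, and confirmation required reproducible complete protection.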

SMILES | EC50 [µM] | IC50 [µM] | outcome
O=[N+]([O-])/C(C(Cl)=C(Cl)Cl)=C1\NCCS1 | > 200 | > 100 | –
CCC[CH2][Sn]1([CH2]CCC)[O]N=Cc2ccccc2[O]1 | > 14.1 | 0.437 | –
C=C1CN(S(=O)(=O)c2ccc(C)cc2)CCCN(Cc2ccc[nH]2)CCCN(S(=O)(=O)c2ccc(C)cc2)C1 | > 200 | 14.5 | –
CC(=O)OCC1OC(SC2=N/C(=C\c3ccc(Br)s3)C(=O)N2CN2CCOCC2)C(OC(C)=O)C(OC(C)=O)C1OC(C)=O (stereo not drawn) | > 200 | 9.33 | –
CSc1ccn(C2CC(F)C(CO)O2)c(=O)n1 (stereo not drawn) | 42.7 | > 200 | –
CCOC(=O)c1c(Br)c(-c2ccc(OC)cc2)c(Br)n1C | > 200 | 12.6 | –
COCC(C#N)NC1CC(OC2CC(O)(C(=O)CO)Cc3c(O)c4c(c(O)c32)C(=O)c2c(OC)cccc2C4=O)OC(C)C1O (stereo not drawn) | > 0.2 | 0.00912 | –
Cc1cccc(NC(=O)CC(=O)N2N=C(N(CCC#N)c3ccc(Cl)cc3)CC2c2ccccc2)c1 (stereo not drawn) | > 100 | > 100 | –
O=C(O)c1ccccc1O | > 1820 | 692 | inactive
O=[N+]([O-])c1ccc(N2N=C(c3c(O)ccc4ccccc34)CC2c2ccc(Cl)cc2)c([N+](=O)[O-])c1 (stereo not drawn) | > 200 | 16.6 | –
COCC(=O)OC1CCn2c1nc1c2C(=O)C(C)=C(NC(C)=O)C1=O (stereo not drawn) | > 200 | 1.26 | –
C[C@H](CCc1nc2ccccc2n1CCN(C)C)[C@H]1CC[C@H]2[C@@H]3CC[C@@H]4C[C@H](O)CC[C@]4(C)[C@H]3CC[C@]12C | 1.55 | 4.79 | –
COc1cc(C(c2c(O)c3ccccc3oc2=O)c2c(O)c3ccccc3oc2=O)ccc1O | > 200 | 56.2 | –
CCOc1ccccc1NC(=O)CC(C(=O)OC)C(=O)C(=O)OC (stereo not drawn) | > 537 | > 537 | –
Cc1c(NC(=O)C(C)(C)Br)c(=O)oc2c(C)c3occc(=O)c3cc12 | > 16.6 | > 16.6 | –
O=C([CH-]C(=O)c1ccccc1)c1ccccc1.O=C([CH-]C(=O)c1ccccc1)c1ccccc1.[CH2-]CCC.[CH2-]CCC.[Sn+4] | > 7.76 | 0.427 | –
C1CSCCSCCCSC2CCCCC2SC1 (stereo not drawn) | > 22.4 | > 22.4 | –
CC1CC(=O)C2CC(CO)=CCCC2C1(C)CC/C(=C/CO)CO (stereo not drawn) | – | – | inactive
CCN(CC)CC1CCCCN1CC(=O)N1CC(C)C(=O)Nc2ccccc21 (stereo not drawn) | 34.7 | 251 | –
O=C1c2ccccc2C(=O)N1N1C(=O)c2ccccc2C1=O | > 200 | > 200 | –
COc1cc2c(cc1OCc1ccccc1)CNCC2 | > 794 | 145 | –
[N-]=[N+]=Nc1cc(=O)[nH]nc1-c1ccccc1 | > 200 | > 200 | –

SMILES | EC50 [µM] | IC50 [µM] | outcome
N#CC1(C#N)C(c2ccccc2)NC23CCCCC2C1(C#N)C(=O)N3 (stereo not drawn) | > 200 | 81.3 | –
O=C(c1nc2ccc(Cl)cc2[nH]c1=O)C(O)c1ccccc1 (stereo not drawn) | > 575 | 11.5 | –
COC(=O)c1cc(C(=O)c2cc(C)c(OC)c(C(=O)OC)c2)cc(C)c1OC | > 200 | 66.1 | –
O=[N+]([O-])c1ccc(S(=O)(=O)N=Ic2ccccc2)cc1 | > 200 | > 200 | –
CCOC(=O)CN(c1sc(C)c(C)c1C(=O)OCC)S(=O)(=O)c1ccc(C)cc1 | > 200 | 11.7 | –
COC(=O)CNC(=O)C(CC(C)C)NC(=O)C(CC(C)C)NC(=O)C(C)NC(=O)OCc1ccccc1 (stereo not drawn) (Cbz-ALLG-OMe; configuration not given here) | – | – | inactive
CN(CC(O)C(O)C(O)C(O)CO)CN1C(=O)C(=O)c2ccccc21 (stereo not drawn) | > 200 | 34.7 | –
CC(C)OC(=O)c1ccc(CCC2=CC(=O)C=CC2=O)cc1 | > 200 | 8.32 | –
CCOC(=O)c1cc(Br)c(-c2cc(C)co2)[nH]1 | > 200 | > 200 | –
COc1ccc2c(c1)OCc1c-2oc2ccccc2c1=O | > 100 | > 100 | –
CC12C(=O)N(CCN)C(=O)C1C1c3ccccc3C2c2ccccc21 (stereo not drawn) | – | – | inactive
CCCCOC(=O)C(=O)/C(=C\n1c(=S)[nH]c2ccccc21)C(=O)C=C(C)C | > 200 | – | –
c1cnc2c(c1)n[n+]1[n-]c3ccccc3n21 | > 12.3 | > 12.3 | –
COc1cc(-c2nn3c(=O)n(-c4ccc(Cl)cc4)c(=O)nc3s2)cc(OC)c1OC | > 0.813 | > 0.813 | –
COc1cc2c[n+](C)c3c(c2cc1OC)Cc1cc(OS(C)(=O)=O)c(OC)cc1-3 | > 57.5 | 10.5 | –
O=C(c1ccccc1)N1OCCC1Nc1ccc(Br)cc1 (stereo not drawn) | – | – | inactive
O=P1(O)Cc2ccccc2-c2ccccc21 | > 200 | > 200 | –
O=c1c2ccccc2c(=O)n2n1CC=CC2 | – | – | inactive
CC(C)(C)NP(=O)(NC(C)(C)C)NC(C)(C)C | > 200 | 107 | –
C[Si](C)(C)OC1(C2=CCCC2)CCCC1CC#N (stereo not drawn) | > 955 | > 955 | –
Nc1ncnc2c1ncn2C1OC(C(O)CO)C(O)C1O (stereo not drawn) | > 200 | > 200 | –
COc1ccc(C(=O)/C=C/c2ccc3c(c2)OCO3)c(O)c1 | > 200 | 81.3 | –

SMILES | EC50 [µM] | IC50 [µM] | outcome
O=C1C(c2ccc(Br)cc2)=[N+]([O-])c2ccccc21 | – | – | inactive
c1ccc([B-]2([C+]3CCCCC3)N3CCCCC3C3CCCCN32)cc1 (stereo not drawn) | > 200 | 8.32 | –
O=C(CCCNC(=O)OCc1ccccc1)OCc1ccc2c(c1)C(=O)c1ccccc1C2=O | > 200 | > 200 | –
COc1ccc2c(c1OC)C(=O)N/C2=C\c1c(CCN(C)C)cc2c(c1OC)OCO2 | > 200 | > 100 | –
CCOC(=O)CSc1[nH]c(NC(=S)Nc2ccccc2)c(C(N)=O)c1C(N)=O | > 200 | 97.7 | –
C1C2CC3C1C1CN3C21 (stereo not drawn) | > 724 | > 724 | –
CC(=O)OC1COC(Nc2nc(N)n(C)c(=O)c2N=O)C(OC(C)=O)C1OC(C)=O (stereo not drawn) | > 200 | > 200 | –
O=C1C(Cl)N(c2ccc(Cl)cc2Cl)C1c1c[nH]c2ccccc12 (stereo not drawn) | > 70.8 | > 70.8 | –
NC(N)=NS(=O)(=O)c1ccc(NC(=O)c2cccc3c(Nc4ccc(S(=O)(=O)N=C(N)N)cc4)c4ccccc4nc23)cc1 | > 29.5 | 22.4 | –
CCOC(=O)/C=C/c1cccc(OC)c1 | > 158 | > 158 | –
O=C(/C=C/C(=O)N1CCCC1)N1CCCC1 | > 200 | > 200 | –
CSc1nc(C)cc(Nc2ccc(O)c(CN3CCCCC3)c2)n1 | > 155 | 64.6 | –
NC(=O)C(=O)n1ncc(Cl)c(Cl)c1=O | > 30.9 | > 30.9 | –
O=C(O)CCC1C(=O)C2CCN1CC2 (stereo not drawn) | > 200 | > 200 | –
CCN1C(=O)CS/C1=N\NC(=O)CSc1nc2ccccc2c(=O)n1CC | > 200 | 151 | –
[O-][n+]1onc2c1-c1nonc1CC2 | > 200 | 26.9 | –
CC(=O)n1[nH]c(=O)n(-c2ccccc2)c1=O | > 200 | > 200 | –
CC(=O)OCCOCn1cnc2c(Cl)nc(Cl)nc21 | > 200 | 7.24 | –
CCOC(=O)C1=C(C)C2C3C(=O)OC(=O)C3C1(C)C1C(=O)OC(=O)C21 (stereo not drawn) | – | – | inactive
O=C1OC(c2ccccc2)(c2ccccc2)C(=O)OC1(c1ccccc1)c1ccccc1 | > 200 | 148 | –
O=C1CCC2(CCC(=O)NC2=O)C(=O)N1 | > 1200 | > 1200 | –
C=CC1(C)OC2(CCN(C(=O)OCC)CC2)OC1C (stereo not drawn) | > 200 | 123 | –

SMILES | EC50 [µM] | IC50 [µM] | outcome
COc1cc2c3c(c1OC)-c1c(ccc4c1OCO4)CC3(C#N)N(C(=O)c1ccccc1)CC2 (stereo not drawn) | – | – | inactive
COc1cc(C2c3cc(OC)c(OC)c(O)c3C(=O)C3CCC(=O)N32)cc(OC)c1OC (stereo not drawn) | > 100 | 14.8 | –
O/N=C1\CCCCC1C(NO)c1ccccc1 (stereo not drawn) | > 398 | 191 | –
CCC(=O)Nc1nc2c(ncn2C2OC(COC(=O)CC)C(OC(=O)CC)C2OC(=O)CC)c(=O)[nH]1 (stereo not drawn) | > 355 | 309 | –
CC1(C)OCC(C)(C)C(O)C1=O (stereo not drawn) | > 1450 | 977 | –
CNC(=O)N(CCC#N)CCCN(C(=O)N(C)C)c1ccccc1 | > 200 | > 200 | –
COc1ccccc1/C=C1/NC(=S)NC1=O | > 200 | > 200 | –
Cc1ccc(S(=O)(=O)/C(C#N)=C/n2ccc(=O)[nH]c2=S)cc1 | > 200 | > 200 | –
CN1CC2=C(NCNS2(=O)=O)N(C)C1 | > 148 | > 148 | –
C/C(=N\Nc1ccccc1)c1sc(-c2nc(C)c(/C(C)=N/Nc3ccccc3)s2)nc1C | > 15.5 | > 15.5 | –
CC(=O)OCC1OC(n2c(C)cc(-c3ccc(Cl)cc3)c(C#N)c2=S)C(OC(C)=O)C(OC(C)=O)C1OC(C)=O (stereo not drawn) | > 200 | 30.2 | –
NC(=O)c1ccccc1NC(=O)C(=O)C(C(=O)c1ccc(Cl)c(Cl)c1)C1OC(=O)c2ccccc21 (stereo not drawn) | > 339 | 21.4 | –
O=Nc1ccc2ccccc2c1O | > 200 | 4.27 | –
COC(=O)c1cc2ccccc2c(=O)s1 | > 16.2 | > 16.2 | –
COc1ccc(-c2c3c(n(C4OC(CO)C(O)C(O)C4O)c(=S)c2C#N)CC(C)(C)CC3=O)cc1 (stereo not drawn) | > 200 | 105 | –
Nc1c2cc3ccc2nc2ccc(cc12)OCCOCCOCCOCCOCCOCCO3 | > 200 | > 200 | –
CC1CN1P(=O)(OCCC#N)N1CC1C (stereo not drawn) | > 200 | > 200 | –
O=C(/C=C/c1ccccc1Cl)c1ccccc1Cl | > 7.24 | > 7.24 | –
CC(C)(N)C(=O)N[C@@H]1C(=O)N2[C@@H]1SC(C)(C)[C@@H]2C(=O)O | > 200 | > 200 | –
CCCCCC/C=C/CCCCCCCc1cccc(O)c1C(=O)O | > 102 | 63.1 | –
Clc1cccc(NC(c2ccccc2)=[N+]2CCCCC2)c1 | > 200 | 30.9 | –
COc1cccc(N2C(=O)/C(=C/c3ccc(N(CCC#N)CCC#N)cc3)N=C2c2cc([N+](=O)[O-])ccc2Cl)c1 | > 9.33 | > 9.33 | –
